Patent US20200360372A1, “COMBINATION THERAPY FOR THE TREATMENT OF ACUTE MYELOID LEUKEMIA” (ASTELLAS PHARMA INC., priority 2016, published 2020)

Tested on: MV4-11 cells
Assay: Anti-apoptosis protein expression in MV4-11 cells (western blot)
Assay type: cell-based, human
Conditions: 24 hours
Experimental: Anti-Apoptosis Protein Expression
MV4-11 cells were seeded on 15 cm dish and cultured overnight. The cells were treated with compound A at 0 (DMSO) or 10 nmol/L in combination with azacitidine at 0 (DMSO) or 1000 nmol/L at final concentration. The assay was performed in duplicate. After twenty-four hours, cells were harvested and lysed with lysis buffer (RIPA Buffer [Thermo Fisher Scientific], 1×Halt Phosphatase Inhibitor Cocktail [Thermo Fisher Scientific], and Protease Inhibitor Cocktail [Sigma-Aldrich]). The samples are centrifuged, and protein concentrations of supernatants were determined using the Pierce (trademark) 660 nm Protein Assay (Thermo Fisher Scientific). Aliquots of 2.0 μg protein/μL were prepared in sample buffer (10 mmol/L dithiothreitol (DTT) [Nacalai Tesque] and 1×SDS sample buffer [Wako Pure Chemical Industries, Ltd.], in lysis buffer), and then were boiled for 5 min.
The samples were separated by electrophoresis and transferred with Trans-Blot (registration symbol) Turbo transfer Pack PVDF (Bio-Rad Laboratories). After blocking with Blocking One (Nacalai Tesque) for 1 hour, each membrane was incubated with antibodies against MCL-1 (#5453, Cell Signaling Technology), BCL2L10 (#3869. Cell Signaling Technology), Survivin (#AF886, R&D Systems), cleaved PARP (#9541, Cell Signaling Technology), or Actin (A2066, Sigma-Aldrich) overnight in a cold room. After washing, the membranes were then incubated with an anti-rabbit IgG HRP-linked antibody (#7074, Cell Signaling Technology) for 1 hour at room temperature. After a final wash, signals for the each proteins were detected using a chemiluminescence reagent ECL-prime Blotting Detection Reagent (GE Healthcare) with a CCD camera (ImageQuant LAS4000. GE Healthcare).

In the case of `CCc1nc(C(N)=O)c(Nc2ccc(N3CCC(N4CCN(C)CC4)CC3)c(OC)c2)nc1NC1CCOCC1` [compound A hemifumarate, 6-ethyl-3-({3-methoxy-4-[4-(4-methylpiperazin-1-yl)piperidin-1-yl]phenyl}amino)-5-(tetrahydro-2H-pyran-4-ylamino)pyrazine-2-carboxamide hemifumarate], the “expression of anti-apoptosis protein BCL2L10” value (10 nmol/L) is reported as “inhibits”, the “expression of anti-apoptosis protein MCL-1” value (10 nmol/L) is reported as “inhibits” and the “expression of anti-apoptosis protein survivin” value (10 nmol/L) is reported as “inhibits”. For the same molecule, the PARP cleavage (compound A 10 nmol/L with or without azacitidine 1000 nmol/L) was “increase”.
